Data published in patent US10806725B2, “Small molecule inhibitors of XBP1 splicing” (GEORGETOWN UNIVERSITY, priority 2011, dated 2020).

What was measured:
Format in all cases: cell-based
[1] = system: MCF7/LCC1 antiestrogen-responsive breast cancer cells; assay: Crystal violet cell proliferation assay, MCF7/LCC1 cells (combination with antiestrogens); conditions: 72 h, >1.0 indicates synergistic interaction
Protocol: (§1) Compound Sd-6 was tested in a dose-response assay using different breast cancer cell lines, including MCF7/LCC1, MCF7/LCC9, T47D, and MCF-7. MCF7/LCC1 is an ERα-positive estrogen-independent, antiestrogen-responsive breast cancer cell line. MCF7/LCC9 is an ERα-positive estrogen-independent, antiestrogen-resistant breast cancer cell line. MCF- is an ERα-positive estrogen-dependent, antiestrogen-responsive breast cancer cell line. Cells were first plated in 96-well plastic tissue culture plates (10,000 cells per well). The cells were treated with 500 nM of Compound Sd-6 or the vehicle alone (DMSO) for 48 h. Following treatment, the cells were washed with PBS, stained with a crystal violet staining solution, and allowed to dry for 48-72 hrs. After drying, sodium citrate buffer was added to each well and allowed to incubate for 5 min at room temperature. The absorbance was measured at 450 nm using a microplate reader (Biorad; Hercules, Calif.).
(§2) Compound Sd-6 was tested in a dose-response assay using MCF7/LCC1 antiestrogen-responsive breast cancer cells and MCF7/LCC9 antiestrogen-resistant breast cancer cells. Cells were first plated in 96-well plastic tissue culture plates (10,000 cells per well). […] Following treatment, cell proliferation was determined using a crystal violet assay as described above. […]

[2] = system: MCF7/LCC9 antiestrogen-resistant breast cancer cells; assay: Crystal violet cell proliferation assay, MCF7/LCC9 cells (combination with antiestrogens); conditions: 10 μM Compound Sd-6 combined with 100 nM Faslodex/ICI 182,780 (ICI), 72 h, >1.0 indicates synergistic interaction
Protocol: as §1, §2

[3] = system: MCF 10A, a non-breast cancer cell line; assay: Crystal violet dose-response cell proliferation assay, MCF 10A control cells; conditions: MCF 10A cells; 10 μM, 25 μM or 50 μM for 72 h
Protocol: as §1
Compound Sd-6 was tested in a dose-response assay using different breast cancer cell lines, including MCF7/LCC1, MCF7/LCC9, T47D, MCF-7, MCF-7/RR, LY2, and MDA-MB-231. MCF 10A, a non-breast cancer cell line, served as the control. The cells were first plated in 96-well plastic tissue culture plates (10,000 cells per well). […] Following treatment, cell proliferation was determined using a crystal violet assay as described in Example 1.

[4] = system: antiestrogen resistant LCC9 cells; assay: Crystal violet cell viability assay, antiestrogen resistant LCC9 cells; conditions: 72 hours, normalized to vehicle-treated cells, compared with NPPTA
Protocol: To measure cell viability, antiestrogen resistant LCC9 cells were plated in 96-well plastic tissue culture plates at a density of 5×10^3 cells/well. Twenty-four hours after plating, cells were treated with 3-naphthoyl-1,1,1-trifluoroacetone (NPPTA) and the analogs (i.e., Compound JS-011, Compound JS-012, Compound JS-013, Compound JS-014, Compound JS-015, Compound JS-020). After 72 hours, the cell culture media was removed and plates were stained with […] of a solution containing 0.5% crystal violet and 25% methanol, rinsed with deionized water, dried overnight, and resuspended in […] citrate buffer (0.1 M sodium citrate in 50% ethanol) to assess plating efficiency. Intensity of crystal violet staining, assessed at 570 nm and quantified using a Vmax Kinetic Microplate Reader and Softmax software (Molecular Devices Corp., Menlo Park, Calif.), was directly proportional to cell number. Data were normalized to vehicle-treated cells and are presented in FIG. 8 as the mean±SE from representative experiments.

| SMILES | RI value (Sexp/Sobs) for inhibition of cell proliferation ([1]; 10 μM Compound Sd-6 combined with 100 nM Faslodex/ICI 182,780 (ICI)) | RI value (Sexp/Sobs) for inhibition of cell proliferation ([1]; 10 μM Compound Sd-6 combined with 100 nM Tamoxifen (TAM)) | RI value (Sexp/Sobs) for inhibition of cell proliferation [2] | Response of relative cell proliferation to compound [3] | Inhibition of LCC9 cells (cell viability, crystal violet) [4] |
| --- | --- | --- | --- | --- | --- |
| O=C(CSc1nc(-c2cccnc2)n[nH]1)Nc1ccc(Oc2ccccc2)cc1 [Compound Sd-6] | 1.44 | 1.82 | 1.27 | did not respond |  |
| O=C(CSc1nc(-c2cccnc2)n[nH]1)Nc1ccc(Oc2ccc(Cl)cc2)cc1 [JS-014] |  |  |  |  | effective, and more potent than NPPTA |
| O=C(CSc1nc(-c2cccnc2)n[nH]1)Nc1ccc(Oc2ccc(C(F)(F)F)cc2)cc1 [JS-020] |  |  |  |  | effective, and more potent than NPPTA |
